Key:
Type in all cases: in vivo
[1] = tested on: Diabrotica Balteata (Corn Root Worm); experiment: Example B1: Diabrotica balteata, spray on maize sprouts; conditions: 96 h, application rate of 200 ppm, L2 larvae, 4 days after infestation, read-out: control in at least one of the two categories (mortality or growth inhibition)
Method: Maize sprouts placed onto an agar layer in 24-well microtiter plates were treated with aqueous test solutions prepared from 10′000 ppm DMSO stock solutions by spraying. After drying, the plates were infested with L2 larvae (6 to 10 per well). The samples were assessed for mortality and growth inhibition in comparison to untreated samples 4 days after infestation.

[2] = tested on: Chilo suppressalis (Striped Rice Stemborer); experiment: Example B4: Chilo suppressalis, artificial diet; conditions: 144 h, application rate of 200 ppm, L2 larvae, 6 days after infestation, read-out: control in at least one of the three categories (mortality, anti-feedant effect, or growth inhibition)
Method: 24-well microtiter plates with artificial diet were treated with aqueous test solutions prepared from 10′000 ppm DMSO stock solutions by pipetting. After drying, the plates were infested with L2 larvae (6-8 per well). The samples were assessed for mortality, anti-feeding effect, and growth inhibition in comparison to untreated samples 6 days after infestation. Control of Chilo suppressalis by a test sample is given when at least one of the categories mortality, anti-feedant effect, and growth inhibition is higher than the untreated sample.

[3] = tested on: Plutella xylostella (Diamond Back Moth); experiment: Example B5: Plutella xylostella, artificial diet, 24-well; conditions: 192 h, application rate of 200 ppm, eggs, 8 days after infestation, read-out: control in at least one of the two categories (mortality or growth inhibition)
Method: 24-well microtiter plates with artificial diet were treated with aqueous test solutions prepared from 10′000 ppm DMSO stock solutions by pipetting. After drying, Plutella eggs were pipetted through a plastic stencil onto a gel blotting paper and the plate was closed with it. The samples were assessed for mortality and growth inhibition in comparison to untreated samples 8 days after infestation.

[4] = tested on: Spodoptera littoralis (Egyptian Cotton Leaf Worm); experiment: Example B9: Spodoptera littoralis, spray on cotton leaf discs; conditions: foliar, 72 h, application rate of 200 ppm, L1 larvae, 3 days after infestation, read-out: control in at least one of the three categories (mortality, anti-feedant effect, or growth inhibition)
Method: Cotton leaf discs were placed onto agar in 24-well microtiter plates and sprayed with aqueous test solutions prepared from 10′000 ppm DMSO stock solutions. After drying the leaf discs were infested with five L1 larvae. The samples were assessed for mortality, anti-feeding effect, and growth inhibition in comparison to untreated samples 3 days after infestation. Control of Spodoptera littoralis by a test sample is given when at least one of the categories mortality, anti-feedant effect, and growth inhibition is higher than the untreated sample.

CC(NC(=O)c1cc(C(F)(F)F)cc(C(F)(F)F)c1)c1nc(Br)nn1-c1ncc(OC(F)F)cn1 (stereo not shown) [Compound P2, N-[1-[5-bromo-2-[5-(difluoromethoxy)pyrimidin-2-yl]-1,2,4-triazol-3-yl]ethyl]-3,5-bis(trifluoromethyl) benzamide]
≥ 80%: percent control (mortality or growth inhibition) at 200 ppm [1] | percent control (mortality, anti-feedant effect or growth inhibition) at 200 ppm [2] | percent control (mortality or growth inhibition) at 200 ppm [3] | percent control (mortality, anti-feedant effect or growth inhibition) at 200 ppm [4]

CC(NC(=O)c1cc(OC(F)F)cc(C(F)(F)F)c1)c1nc(Br)nn1-c1ccc(OC(F)F)cn1 (stereo not shown) [Compound P7, N-[1-[5-bromo-2-[5-(difluoromethoxy)-2-pyridyl]-1,2,4-triazol-3-yl]ethyl]-3-(difluoromethoxy)-5-(trifluoromethyl) benzamide]
≥ 80%: percent control (mortality or growth inhibition) at 200 ppm [1] | percent control (mortality, anti-feedant effect or growth inhibition) at 200 ppm [2] | percent control (mortality or growth inhibition) at 200 ppm [3] | percent control (mortality, anti-feedant effect or growth inhibition) at 200 ppm [4]

CC(NC(=O)c1cc(OC(F)F)cc(C(F)(F)F)c1)c1nc(Br)nn1-c1ccc(C#N)cn1 (stereo not shown) [Compound P10, N-[1-[5-bromo-2-(5-cyano-2-pyridyl)-1,2,4-triazol-3-yl]ethyl]-3-(difluoromethoxy)-5-(trifluoromethyl)benzamide]
≥ 80%: percent control (mortality or growth inhibition) at 200 ppm [1] | percent control (mortality, anti-feedant effect or growth inhibition) at 200 ppm [2] | percent control (mortality or growth inhibition) at 200 ppm [3] | percent control (mortality, anti-feedant effect or growth inhibition) at 200 ppm [4]

CC(NC(=O)c1cc(OCC(F)F)cc(C(F)(F)F)c1)c1nc(Br)nn1-c1ccc(OC(F)F)cn1 (stereo not shown) [Compound P34, N-[1-[5-bromo-2-[5-(difluoromethoxy)-2-pyridyl]-1,2,4-triazol-3-yl]ethyl]-3-(2,2-difluoroethoxy)-5-(trifluoromethyl) benzamide]
≥ 80%: percent control (mortality or growth inhibition) at 200 ppm [1] | percent control (mortality, anti-feedant effect or growth inhibition) at 200 ppm [2] | percent control (mortality or growth inhibition) at 200 ppm [3] | percent control (mortality, anti-feedant effect or growth inhibition) at 200 ppm [4]

CC(NC(=O)c1cc(C(F)F)cc(C(F)(F)F)c1)c1nc(Br)nn1-c1ccc(OCC(F)(F)F)cn1 (stereo not shown) [Compound P54, N-[1-[5-bromo-2-[5-(2,2,2-trifluoroethoxy)-2-pyridyl]-1,2,4-triazol-3-yl]ethyl]-3-(difluoromethyl)-5-(trifluoromethyl) benzamide]
≥ 80%: percent control (mortality or growth inhibition) at 200 ppm [1] | percent control (mortality, anti-feedant effect or growth inhibition) at 200 ppm [2] | percent control (mortality or growth inhibition) at 200 ppm [3] | percent control (mortality, anti-feedant effect or growth inhibition) at 200 ppm [4]

CC(NC(=O)c1cc(SC(F)(F)F)cc(C(F)(F)F)c1)c1nc(Br)nn1-c1ncc(OCC(F)F)cn1 (stereo not shown) [Compound P24, N-[1-[5-bromo-2-[5-(2,2-difluoroethoxy)pyrimidin-2-yl]-1,2,4-triazol-3-yl]ethyl]-3-(trifluoromethyl)-5-(trifluoromethyl-sulfanyl)benzamide]
≥ 80%: percent control (mortality or growth inhibition) at 200 ppm [1] | percent control (mortality, anti-feedant effect or growth inhibition) at 200 ppm [2] | percent control (mortality or growth inhibition) at 200 ppm [3] | percent control (mortality, anti-feedant effect or growth inhibition) at 200 ppm [4]

CC(NC(=O)c1cc(C(F)(F)F)cc(C(F)(F)F)c1)c1nc(Br)nn1-c1ncc(OCC(F)F)cn1 (stereo not shown) [Compound P25, N-[1-[5-bromo-2-[5-(2,2-difluoroethoxy)pyrimidin-2-yl]-1,2,4-triazol-3-yl]ethyl]-3,5-bis(trifluoromethyl) benzamide]
≥ 80%: percent control (mortality or growth inhibition) at 200 ppm [1] | percent control (mortality, anti-feedant effect or growth inhibition) at 200 ppm [2] | percent control (mortality or growth inhibition) at 200 ppm [3] | percent control (mortality, anti-feedant effect or growth inhibition) at 200 ppm [4]

CC(NC(=O)c1cc(OC(F)F)cc(C(F)(F)F)c1)c1nc(Br)nn1-c1ccc(OCC(F)(F)F)cn1 (stereo not shown) [Compound P38, N-[1-[5-bromo-2-[5-(2,2,2-trifluoroethoxy)-2-pyridyl]-1,2,4-triazol-3-yl]ethyl]-3-(difluoromethoxy)-5-(trifluoromethyl) benzamide]
≥ 80%: percent control (mortality or growth inhibition) at 200 ppm [1] | percent control (mortality, anti-feedant effect or growth inhibition) at 200 ppm [2] | percent control (mortality or growth inhibition) at 200 ppm [3] | percent control (mortality, anti-feedant effect or growth inhibition) at 200 ppm [4]

CC(NC(=O)c1cc(C(F)(F)F)cc(C(F)(F)F)c1)c1nc(Br)nn1-c1ccc(C#N)cn1 (stereo not shown) [Compound P11, N-[1-[5-bromo-2-(5-cyano-2-pyridyl)-1,2,4-triazol-3-yl]ethyl]-3,5-bis(trifluoromethyl)benzamide]
≥ 80%: percent control (mortality or growth inhibition) at 200 ppm [1] | percent control (mortality, anti-feedant effect or growth inhibition) at 200 ppm [2] | percent control (mortality or growth inhibition) at 200 ppm [3] | percent control (mortality, anti-feedant effect or growth inhibition) at 200 ppm [4]

CC(NC(=O)c1cc(OCC(F)F)cc(C(F)(F)F)c1)c1nc(Br)nn1-c1ccc(C#N)cn1 (stereo not shown) [Compound P33, N-[1-[5-bromo-2-(5-cyano-2-pyridyl)-1,2,4-triazol-3-yl]ethyl]-3-(2,2-difluoroethoxy)-5-(trifluoromethyl)benzamide]
≥ 80%: percent control (mortality, anti-feedant effect or growth inhibition) at 200 ppm [2] | percent control (mortality or growth inhibition) at 200 ppm [3] | percent control (mortality, anti-feedant effect or growth inhibition) at 200 ppm [4]

CC(NC(=O)c1cc(C(F)(F)F)cc(C(F)(F)F)c1)c1nc(Br)nn1-c1ccc(OC(F)F)cn1 (stereo not shown) [Compound P6, N-[1-[5-bromo-2-[5-(difluoromethoxy)-2-pyridyl]-1,2,4-triazol-3-yl]ethyl]-3,5-bis(trifluoromethyl) benzamide]
≥ 80%: percent control (mortality or growth inhibition) at 200 ppm [1] | percent control (mortality, anti-feedant effect or growth inhibition) at 200 ppm [2] | percent control (mortality or growth inhibition) at 200 ppm [3] | percent control (mortality, anti-feedant effect or growth inhibition) at 200 ppm [4]

CC(NC(=O)c1cc(Cl)cc(C(F)(F)F)c1)c1nc(Br)nn1-c1ccc(OCC(F)(F)F)cn1 (stereo not shown) [Compound P37, N-[1-[5-bromo-2-[5-(2,2,2-trifluoroethoxy)-2-pyridyl]-1,2,4-triazol-3-yl]ethyl]-3-chloro-5-(trifluoromethyl) benzamide]
≥ 80%: percent control (mortality, anti-feedant effect or growth inhibition) at 200 ppm [2] | percent control (mortality or growth inhibition) at 200 ppm [3] | percent control (mortality, anti-feedant effect or growth inhibition) at 200 ppm [4]

CC(NC(=O)c1cc(C(F)F)cc(C(F)(F)F)c1)c1nc(Br)nn1-c1ccc(OC(F)F)cn1 (stereo not shown) [Compound P51, N-[1-[5-bromo-2-[5-(difluoromethoxy)-2-pyridyl]-1,2,4-triazol-3-yl]ethyl]-3-(difluoromethyl)-5-(trifluoromethyl) benzamide]
≥ 80%: percent control (mortality or growth inhibition) at 200 ppm [1] | percent control (mortality, anti-feedant effect or growth inhibition) at 200 ppm [2] | percent control (mortality or growth inhibition) at 200 ppm [3] | percent control (mortality, anti-feedant effect or growth inhibition) at 200 ppm [4]

CC(NC(=O)c1cc(OC(F)(F)F)cc(C(F)(F)F)c1)c1nc(Br)nn1-c1ccc(C#N)cn1 (stereo not shown) [Compound P9, N-[1-[5-bromo-2-(5-cyano-2-pyridyl)-1,2,4-triazol-3-yl]ethyl]-3-(trifluoromethoxy)-5-(trifluoromethyl)benzamide]
≥ 80%: percent control (mortality or growth inhibition) at 200 ppm [1] | percent control (mortality, anti-feedant effect or growth inhibition) at 200 ppm [2] | percent control (mortality or growth inhibition) at 200 ppm [3] | percent control (mortality, anti-feedant effect or growth inhibition) at 200 ppm [4]

CC(NC(=O)c1cc(C(F)(F)F)cc(C(F)(F)F)c1)c1nc(C#N)nn1-c1ccc(C#N)cn1 (stereo not shown) [Compound P48, N-[1-[5-cyano-2-(5-cyano-2-pyridyl)-1,2,4-triazol-3-yl]ethyl]-3,5-bis(trifluoromethyl) benzamide]
≥ 80%: percent control (mortality or growth inhibition) at 200 ppm [1] | percent control (mortality, anti-feedant effect or growth inhibition) at 200 ppm [2] | percent control (mortality, anti-feedant effect or growth inhibition) at 200 ppm [4]

CC(NC(=O)c1cc(Br)cc(C(F)(F)F)c1)c1nc(Br)nn1-c1ccc(OCC(F)(F)F)cn1 (stereo not shown) [Compound P50, 3-bromo-N-[1-[5-bromo-2-[5-(2,2,2-trifluoroethoxy)-2-pyridyl]-1,2,4-triazol-3-yl]ethyl]-5-(trifluoromethyl) benzamide]
≥ 80%: percent control (mortality, anti-feedant effect or growth inhibition) at 200 ppm [2] | percent control (mortality or growth inhibition) at 200 ppm [3]

CC(NC(=O)c1cc(OCC(F)(F)F)cc(C(F)(F)F)c1)c1nc(Br)nn1-c1ccc(OCC(F)(F)F)cn1 (stereo not shown) [Compound P39, N-[1-[5-bromo-2-[5-(2,2,2-trifluoroethoxy)-2-pyridyl]-1,2,4-triazol-3-yl]ethyl]-3-(2,2,2-trifluoroethoxy)-5-(trifluoromethyl) benzamide]
≥ 80%: percent control (mortality or growth inhibition) at 200 ppm [3] | percent control (mortality, anti-feedant effect or growth inhibition) at 200 ppm [4]

Reference: patent publication US12552766B2, “Pesticidally active azole amide compounds” (SYNGENTA CROP PROTECTION AG, priority 2019, dated 2026)
